Measurements published in patent US8741940B2, “Microbicidal composition” (Rohm and Haas Company, priority 2005, dated 2014).
Several values for one entry are separate records, joined by “and”; a condition that tells them apart may be missing. Equal values may be shown once. Read-outs that look alike come from different tables or passages of the source.

Assays:
Format in all cases: cell-based
Conditions in all cases: for Qa (concentration of MBIT producing the end point, MIC): alone where Qb = 0, otherwise in the mixture
[1] = system: Aspergillus niger (A. niger—ATCC 16404); experiment: Synergy test, microtiter plate high resolution MIC assay, mold in PDB medium; parameters: Qb (Second Component B) / Qa (First Component A): unit: ppm
Method in brief: (§1)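 High-resolution microtiter MICs spanned 2 to 10,000 ppm active, tested alongside varying BBIT or MBIT as component A. E. coli was run at ~5×10^6/mL in M9GY (0.2% glucose, 0.1% yeast extract) at 30 °C; C. albicans and A. niger at 5×10^5/mL in PDB. Synergy index is Qa/QA + Qb/QB, with >1 indicating antagonism.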

[2] = system: Escherichia coli (E. coli—ATCC #8739); experiment: Synergy test, microtiter plate high resolution MIC assay, bacterium in M9GY medium; parameters: Qa (First Component A) / Qb (Second Component B): unit: ppm
Method in brief: as §1

[3] = system: Candida albicans (C. albicans—ATCC 10231); experiment: Synergy test, microtiter plate high resolution MIC assay, yeast in PDB medium; parameters: Qb (Second Component B) / Qa (First Component A): unit: ppm
Method in brief: as §1

[4] = A=MBIT, B=2-bromo-2-nitro-propane-1,3-diol (BNPD), A. niger 16404 - PDB, 4 days
[5] = A=MBIT, B=BBIT, A. niger 16404 - PDB, 4 days
[6] = A=MBIT, B=Benzalkonium chloride (Hyamine 3500), A. niger 16404 - PDB, 4 days
[7] = A=MBIT, B=Benzisothiazolinone (BIT), A. niger 16404 - PDB, 7 days
[8] = A=MBIT, B=Benzyl alcohol, A. niger 16404 - PDB, 4 days
[9] = A=MBIT, B=Caprylyl glycol, A. niger 16404 - PDB, 4 days
[10] = A=MBIT, B=Chlorphenesin, A. niger 16404 - PDB, 3 days
[11] = A=MBIT, B=DMDM Hydantoin (DMDMH), A. niger 16404 - PDB, 3 days
[12] = A=MBIT, B=dithio-2,2′-bis(N-methylbenzamide) (DTBMA), A. niger 16404 - PDB, 3 days
[13] = A=MBIT, B=2-bromo-2-nitro-propane-1,3-diol (BNPD), E. coli 8739 - M9GY, 24 hours
[14] = A=MBIT, B=BBIT, E. coli 8739 - M9GY, 24 hours
[15] = A=MBIT, B=Benzalkonium chloride (Hyamine 3500), E. coli 8739 - M9GY, 24 hours
[16] = A=MBIT, B=Benzisothiazolinone (BIT), E. coli 8739 - M9GY, 24 hours
[17] = A=MBIT, B=Benzyl alcohol, E. coli 8739 - M9GY, 24 hours
[18] = A=MBIT, B=Caprylyl glycol, E. coli 8739 - M9GY, 24 hours
[19] = A=MBIT, B=Chlorphenesin, E. coli 8739 - M9GY, 24 hours
[20] = A=MBIT, B=DMDM Hydantoin (DMDMH), E. coli 8739 - M9GY, 24 hours
[21] = A=MBIT, B=dithio-2,2′-bis(N-methylbenzamide) (DTBMA), E. coli 8739 - M9GY, 24 hours
[22] = A=MBIT, B=2-bromo-2-nitro-propane-1,3-diol (BNPD), C. albicans 10231 - PDB, 24 hours
[23] = A=MBIT, B=BBIT, C. albicans 10231 - PDB, 48 hours
[24] = A=MBIT, B=Benzalkonium chloride (Hyamine 3500), C. albicans 10231 - PDB, 24 hours
[25] = A=MBIT, B=Benzisothiazolinone (BIT), C. albicans 10231 - PDB, 48 hours
[26] = A=MBIT, B=Benzyl alcohol, C. albicans 10231 - PDB, 48 hours
[27] = A=MBIT, B=Caprylyl glycol, C. albicans 10231 - PDB, 24 hours
[28] = A=MBIT, B=Chlorphenesin, C. albicans 10231 - PDB, 72 hours
[29] = A=MBIT, B=DMDM Hydantoin (DMDMH), C. albicans 10231 - PDB, 24 hours
[30] = A=MBIT, B=dithio-2,2′-bis(N-methylbenzamide) (DTBMA), C. albicans 10231 - PDB, 24 hours
[31] = C. albicans 10231, PDB, 24 hours
[32] = C. albicans 10231, PDB, 48 hours
[33] = C. albicans 10231, PDB, 72 hours

## Cn1sc2ccccc2c1=O [MBIT, N-methyl-1,2-benzisothiazolin-3-one]
[1]
  Qa (First Component A): 30 and 40
  Qa (concentration of First Component A = MBIT at the end point): 40
  SI (synergy index): 1.00
[1]; A. niger 16404, PDB, 3 days
  SI (synergy index): 1.00
  Qa (concentration of MBIT producing the end point, MIC): 40 ppm and 20 ppm and 30 ppm
[1]; A. niger 16404, PDB, 4 days
  SI (synergy index): 1.00
  Qa (concentration of MBIT producing the end point, MIC): 30 ppm and 40 ppm
[1]; A. niger 16404, PDB, 7 days
  SI (synergy index): 1.00
  Qa (concentration of MBIT producing the end point, MIC): 50 ppm and 60 ppm
[1]; [4]
  Qa (First Component A): 30
  SI (synergy index): 1.00
[1]; [5]
  Qa (First Component A): 40
  SI (synergy index): 1.00
[1]; [6]
  Qa (First Component A): 30
  SI (synergy index): 1.00
[1]; [7]
  Qa (First Component A): 50
  SI (synergy index): 1.00
[1]; [8]
  Qa (First Component A): 50
  SI (synergy index): 1.00
[1]; [9]
  Qa (First Component A): 20
  SI (synergy index): 1.00
[1]; [10]
  Qa (First Component A): 20
  SI (synergy index): 1.00
[1]; [11]
  Qa (First Component A): 40
  SI (synergy index): 1.00
[1]; [12]
  Qa (First Component A): 30
  SI (synergy index): 1.00
[2]
  Qa (First Component A): 10 and 7.5
  Qa (concentration of First Component A = MBIT at the end point): 10
  SI (synergy index): 1.00
[2]; [13]
  Qa (First Component A): 10
  SI (synergy index): 1.00
[2]; [14]
  Qa (First Component A): 10
  SI (synergy index): 1.00
[2]; [15]
  Qa (First Component A): 100
  SI (synergy index): 1.00
[2]; [16]
  Qa (First Component A): 10
  SI (synergy index): 1.00
[2]; [17]
  Qa (First Component A): 10
  SI (synergy index): 1.00
[2]; [18]
  Qa (First Component A): 10
  SI (synergy index): 1.00
[2]; [19]
  Qa (First Component A): 15
  SI (synergy index): 1.00
[2]; [20]
  Qa (First Component A): 10
  SI (synergy index): 1.00
[2]; [21]
  Qa (First Component A): 15
  SI (synergy index): 1.00
[2]; E. coli 8739, M9GY, 24 hours
  SI (synergy index): 1.00
  Qa (concentration of MBIT producing the end point, MIC): 10 ppm and 15 ppm
[2]; E. coli 8739, M9GY, 48 hours
  SI (synergy index): 1.00
  Qa (concentration of MBIT producing the end point, MIC): 20 ppm and 15 ppm
[2]; E. coli 8739, M9GY, 72 hours
  SI (synergy index): 1.00
  Qa (concentration of MBIT producing the end point, MIC): 15 ppm
[3]
  Qa (First Component A): 8 and 10
  Qa (concentration of First Component A = MBIT at the end point): 7.5
  SI (synergy index): 1.00
[3]; [22]
  Qa (First Component A): 8
  SI (synergy index): 1.00
[3]; [23]
  Qa (First Component A): 10
  SI (synergy index): 1.00
[3]; [24]
  Qa (First Component A): 8
  SI (synergy index): 1.00
[3]; [25]
  Qa (First Component A): 10
  SI (synergy index): 1.00
[3]; [26]
  Qa (First Component A): 10
  SI (synergy index): 1.00
[3]; [27]
  Qa (First Component A): 10
  SI (synergy index): 1.00
[3]; [28]
  Qa (First Component A): 10
  SI (synergy index): 1.00
[3]; [29]
  Qa (First Component A): 7.5
  SI (synergy index): 1.00
[3]; [30]
  Qa (First Component A): 10
  SI (synergy index): 1.00
[3]; [31]
  SI (synergy index): 1.00
  Qa (concentration of MBIT producing the end point, MIC): 7.5 ppm and 10 ppm and 15 ppm and 8 ppm
[3]; [32]
  SI (synergy index): 1.00
  Qa (concentration of MBIT producing the end point, MIC): 7.5 ppm and 10 ppm
[3]; [33]
  SI (synergy index): 1.00
  Qa (concentration of MBIT producing the end point, MIC): 15 ppm
